Reference: patent US20200369728A1, “PEPTIDOMIMETIC MACROCYCLES AND USES THEREOF” (Aileron Therapeutics, Inc., priority 2015, published 2020)
In brackets after ≈: the same amount, converted by molar mass. Several values for one entry are separate records, joined by “and”; a condition that tells them apart may be missing. Identical values can stand only once. Bridge positions count the residues as written; N and C are the ends. Square brackets hold non-standard residues; d marks the D form. Peptide text beside a SMILES is read from it. Phe(4-COOH) = N[C@@H](Cc1ccc(C(=O)O)cc1)C(=O)O; R8 = C=CCCCCCC[C@@](C)(N)C(=O)O; Cba = N[C@@H](CC1CCC1)C(=O)O; S5 = C=CCCC[C@](C)(N)C(=O)O

What was measured:
MCF-7 = assay: WST-1 / MTT cell proliferation assay, MCF-7 (single agents and combinations); format: cell-based, human; details: single agent, 5 days
Experimental: All media were supplemented with 10% (v/v) fetal calf serum, 100 units penicillin and 100 μg/ml streptomycin at 37° C. and 5% CO2. Prior to dosing, MCF-7 cells were switched to serum free medium and grown at 37° C. overnight.
One day prior to assaying, cells were trypsinized, counted and seeded at pre-determined densities in 96-well plates as follows: MCF-7, 5000 cells/well/200 μl; MOLT-3, 30,000 cells/well/200 μl. […] The WST-1 variant of the MTT assay was used to measure cell viability according to the manufacturer's protocol. WST-1 is a cell-impermeable, sulfonated tetrazolium salt that can be used to examine cell viability without killing the cells.
Combination index (CI) values were calculated using the CompuSyn software. The data were expressed as log(CI).
Cells were evaluated for viability by WST-1 assay or MTT assay 3-7 days after beginning the simultaneous treatments (FIGS. 25, 30 and 31).
Cells were evaluated for viability by WST-1 assay or MTT assay 3-7 days or 120 hrs after beginning treatment (FIGS. 24A and 35). […] Cells were evaluated for viability by WST-1 assay or MTT assay 3-7 days after beginning the simultaneous treatments (FIGS. 36 and 37).

MDM2 (In-house, 41 kD) = MDM2 (In-house, 41 kD) (UniProt Q00987); assay: competitive fluorescence polarization, displacement of FAM-labeled linear peptide from MDM2; grade decoded by the scale of Table 4
MDM2 (In-house, 41 kD), sequence (Q00987 1-125 limits assumed): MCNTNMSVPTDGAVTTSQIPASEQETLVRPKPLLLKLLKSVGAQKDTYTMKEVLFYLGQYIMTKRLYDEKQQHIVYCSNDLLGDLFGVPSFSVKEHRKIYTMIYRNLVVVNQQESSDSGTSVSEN

MDMX (In-house, 40 kD) = molecular target: T1, MDMX (In-house, 40 kD) (UniProt O15151); assay: competitive fluorescence polarization, displacement of FAM-labeled linear peptide from MDMX; grade decoded by the scale of Table 4
T1 sequence (looked up): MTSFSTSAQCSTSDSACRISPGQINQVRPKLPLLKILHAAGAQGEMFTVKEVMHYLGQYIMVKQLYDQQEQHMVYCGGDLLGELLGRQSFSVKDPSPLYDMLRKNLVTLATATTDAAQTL

DOHH-2 = assay: WST-1 / MTT cell viability, DOHH-2; format: cell-based, human; details: DOHH-2, sequential treatment, 72 hrs
Experimental: Initially, various DOHH-2 cell numbers were plated and evaluated 3-7 days later to determine the optimal number of cells to be plated and treatment duration.
(§1) A drug combination index plot was used to assess the synergistic, additive, or antagonistic properties of each combination treatment. […] Combination index (CI) values were calculated using the CompuSyn software. The data were expressed as log(CI).
The anticancer activity of the combination treatment was assessed based on the order of addition of the drugs.

FIGURE 19 = assay: FIGURE 19
From the text: Table printed on a drawing sheet, FIGURE 19
First reader's note: The table is an inset in a plot of solubility against the number of amino acids C-terminal to the cross-link.

[1] = MCF-7 breast cancer xenograft study, body weight and deaths; format: in vivo, mice
From the text: A negative control stapled peptide.

AML cell lines = assay: Cellular proliferation in AML cells treated with Ara-C; format: cell-based; details: Ara-C alone
MV4-11 = assay: WST-1 / MTT cell viability, MV4-11; details: MV4-11, sequential treatment, 72 hrs
Experimental: Initially, various MV4-11 cell numbers were plated and evaluated 3-7 days later to determine the optimal number of cells to be plated and treatment duration.
Cells were evaluated for viability by WST-1 assay or MTT assay 3-7 days after beginning treatment.
as §1

[2] = tested on: MCF-7 breast cancer xenograft; assay: MCF-7 breast cancer xenograft study, tumor growth inhibition; details: 30 mg/kg three times per week iv
Experimental: This formulation was prepared once for the duration of the study.
Each group was assigned to a different treatment regimen.
During the dosing period the mice were weighed and tumors measured 1-2 times per week.

SJSA-1 = assay: Cell viability assay (MTT), SJSA-1

IC50 (MDM2 (In-house, 41 kD))	IC50 (MDMX (In-house, 40 kD)) [µM]	Compound	further results
–	–	CO[C@H]1C[C@@H]2CC[C@@H](C)[C@@](O)(O2)C(=O)C(=O)N2CCCC[C@H]2C(=O)O[C@H]([C@H](C)C[C@@H]2CC[C@@H](OCCO)[C@H](OC)C2)CC(=O)[C@H](C)/C=C(\C)[C@@H](O)[C@@H](OC)C(=O)[C@H](C)C[C@H](C)/C=C/C=C/C=C/1C [everolimus, reference compound]	effect on MCF-7 cell proliferation (MCF-7): inhibited MCF-7 breast cancer cell proliferation with limited cell killing as a single agent
< 0.01 µM	> 1	SP755, Ac-tawyanf4CF3e$r5llr$r5a-NH2 (peptide)	–
> 0.01 µM and < 0.1 µM	> 1	SP753, Ac-tawy$r5nf4CF3e$r5llr-NH2 (peptide)	–
> 0.1 µM and < 1 µM	> 1	SP754, Ac-tawya$r5f4CF3ek$r5lr-NH2 (peptide)	–
> 0.01 µM and < 0.1 µM	> 1	SP756, Ac-t$s8wyanf4CF3e$r5llr-NH2 (peptide)	–
–	–	CC[C@]1(O)C[C@H]2CN(CCc3c([nH]c4ccccc34)[C@@](C(=O)OC)(c3cc4c(cc3OC)N(C=O)[C@H]3[C@@](O)(C(=O)OC)[C@H](OC(C)=O)[C@]5(CC)C=CCN6CC[C@]43[C@@H]65)C2)C1 [VCR, vincristine, reference compound]	order of addition: effect on cell growth, AP1 and VCR (DOHH-2): suppressed DOHH-2 cell growth with or without AP1
–	–	CC(=O)N[C@@H](CC(C)C)C(=O)N[C@H](C(=O)N[C@@H](Cc1ccccc1)C(=O)N[C@]1(C)CCCCCCC=CCCC[C@@](C)(C(=O)N[C@@H](C)C(=O)N[C@@H](C)C(=O)N[C@@H](C)C(=O)N[C@@H](C)C(=O)N[C@@H](C)C(=O)N[C@@H](C)C(=O)N[C@H](C)C(N)=O)NC(=O)[C@H](CC(C)C)NC(=O)[C@H](CCC(N)=O)NC(=O)[C@H](C)NC(=O)[C@H](Cc2c[nH]c3ccccc23)NC(=O)[C@H](Cc2ccc(O)cc2)NC(=O)[C@H](C)NC1=O)[C@@H](C)O [SP316]	Solubility (FIGURE 19): 5 mg/mL (≈ 2570 µM)
–	–	CC[C@H](C)[C@H](NC(=O)[C@H](C)NC(=O)[C@H](C)NC(=O)[C@]1(C)CCCC=CCCCCCC[C@@](C)(NC(=O)[C@H](Cc2ccccc2)NC(=O)[C@@H](NC(=O)[C@H](CC(C)C)NC(C)=O)[C@@H](C)O)C(=O)N[C@@H](CCC(=O)O)C(=O)N[C@@H](Cc2ccc(C(=O)O)cc2)C(=O)N[C@@H](Cc2c[nH]c3ccccc23)C(=O)N[C@@H](C)C(=O)N[C@@H](CCC(N)=O)C(=O)N[C@@H](CC2CCC2)C(=O)N1)C(=O)N[C@H](C)C(N)=O [SP249] (Ac-LTF[R8]E[Phe(4-COOH)]WAQ[Cba][S5]AAI[dA]-NH2; staple 4-11)	mice died during treatment ([1]; […] three times per week iv, 10 mice per group): 4
< 0.01 µM	> 1	SP757, Ac-tawy$s8nf4CF3ekll$r5a-NH2 (peptide)	–
–	–	Nc1ccn([C@@H]2O[C@H](CO)[C@@H](O)[C@@H]2O)c(=O)n1 [Ara-C, cytarabine, reference compound]	proliferation of AML cell lines (AML cell lines): inhibits proliferation of AML cell lines; order of addition: effect on cell growth, AP1 and Ara-C (MV4-11): suppressed MV4-11 cell growth with or without AP1
–	–	CC(=O)N[C@@H](CC(C)C)C(=O)N[C@H](C(=O)N[C@@H](C)C(=O)N[C@]1(C)CCCCCCC=CCCC[C@@](C)(C(=O)N[C@@H](CO)C(=O)N[C@@H](C)C(=O)N[C@@H](C)C(N)=O)NC(=O)[C@H](CC2CCC2)NC(=O)[C@H](CCC(N)=O)NC(=O)[C@H](C)NC(=O)[C@H](Cc2c[nH]c3ccccc23)NC(=O)[C@H](Cc2ccc(O)cc2)NC(=O)[C@H](CCC(=O)O)NC1=O)[C@@H](C)O [SP252]	TGI by Day 32 [2]: 88%; % BW Change ([1]; 30 mg/kg 3x/wk iv, Days 18-39): +3.3%; No. with ≥10% BW Loss ([1]; 30 mg/kg 3x/wk iv, Days 18-39): 0/10; No. with ≥20% BW Loss or death ([1]; 30 mg/kg 3x/wk iv, Days 18-39): 0/10; tolerability of dosing regimen ([1]; 30 mg/kg three times per week iv): well-tolerated with no body weight loss or deaths noted; activity in the SJSA-1 in vitro viability assay (SJSA-1): no activity
> 0.01 µM and < 0.1 µM	> 1	SP758, Ac-tawya$s8f4CF3ekllr$r5a-NH2 (peptide)	–
